Data: PubChem BioAssay (NCI)
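Dose response: 5 concentrations. Exposure: 48 h. Format: 96-well plates. Endpoint: linear interpolation; highest concentration if not reached. GI50 marks 50% less growth. TGI denotes the concentration required for complete inhibition of growth.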

Key:
Assay in all cases: inhibition of tumour cell growth, NCI panel, 48 h
786-0 renal = test system: 786-0 renal
A498 renal = test system: A498 renal
A549 NSCLC = test system: A549 NSCLC
ACHN renal = test system: ACHN renal
BT-549 breast = test system: BT-549 breast
CAKI-1 renal = test system: CAKI-1 renal
CCRF-CEM leukemia = test system: CCRF-CEM leukemia
COLO 205 colon = test system: COLO 205 colon
DU-145 prostate = test system: DU-145 prostate
EKVX NSCLC = test system: EKVX NSCLC
HCC-2998 colon = test system: HCC-2998 colon
HCT-116 colon = test system: HCT-116 colon
HCT-15 colon = test system: HCT-15 colon
HL-60(TB) leukemia = test system: HL-60(TB) leukemia
HOP-62 NSCLC = test system: HOP-62 NSCLC
HOP-92 NSCLC = test system: HOP-92 NSCLC
HS 578T breast = test system: HS 578T breast
HT29 colon = test system: HT29 colon
IGROV1 ovarian = test system: IGROV1 ovarian
K-562 leukemia = test system: K-562 leukemia
KM12 colon = test system: KM12 colon
LOX IMVI melanoma = test system: LOX IMVI melanoma
M14 melanoma = test system: M14 melanoma
MALME-3M melanoma = test system: MALME-3M melanoma
MCF7 breast = test system: MCF7 breast
MDA-MB-231 breast = test system: MDA-MB-231 breast
MDA-MB-435 = test system: MDA-MB-435
MDA-MB-468 breast = test system: MDA-MB-468 breast
MOLT-4 leukemia = test system: MOLT-4 leukemia
NCI-H226 lung = test system: NCI-H226 lung
NCI-H23 lung = test system: NCI-H23 lung
NCI-H460 lung = test system: NCI-H460 lung
NCI-H522 lung = test system: NCI-H522 lung
NCI/ADR-RES ovarian = test system: NCI/ADR-RES ovarian
OVCAR-3 ovarian = test system: OVCAR-3 ovarian
OVCAR-4 ovarian = test system: OVCAR-4 ovarian
OVCAR-5 ovarian = test system: OVCAR-5 ovarian
OVCAR-8 ovarian = test system: OVCAR-8 ovarian
PC-3 prostate = test system: PC-3 prostate
RPMI-8226 leukemia = test system: RPMI-8226 leukemia
RXF 393 renal = test system: RXF 393 renal
SF-268 CNS = test system: SF-268 CNS
SF-295 CNS = test system: SF-295 CNS
SF-539 CNS = test system: SF-539 CNS
SK-MEL-2 melanoma = test system: SK-MEL-2 melanoma
SK-MEL-28 melanoma = test system: SK-MEL-28 melanoma
SK-MEL-5 melanoma = test system: SK-MEL-5 melanoma
SK-OV-3 ovarian = test system: SK-OV-3 ovarian
SN12C renal = test system: SN12C renal
SNB-19 CNS = test system: SNB-19 CNS
SR leukemia = test system: SR leukemia
SW-620 colon = test system: SW-620 colon
T-47D breast = test system: T-47D breast
TK-10 renal = test system: TK-10 renal
U251 CNS = test system: U251 CNS
UACC-257 melanoma = test system: UACC-257 melanoma
UACC-62 melanoma = test system: UACC-62 melanoma
UO-31 renal = test system: UO-31 renal

Work on `O=C(NNc1nc2cc(F)ccc2n2c(CN3CCCCC3)ccc12)c1cnccn1` yielded a GI50 (786-0 renal) of 1320 nM, a TGI (786-0 renal) of 4360 nM and a GI50 (A498 renal) of 13900 nM. For the same compound, the TGI (A498 renal) was 26900 nM, the GI50 (A549 NSCLC) was 1220 nM and the TGI (A549 NSCLC) was 11800 nM. The GI50 (ACHN renal) was 763 nM, the TGI (ACHN renal) was 7910 nM and the GI50 (BT-549 breast) was 1570 nM. It also gave a TGI (BT-549 breast) of 12700 nM, a GI50 (CAKI-1 renal) of 918 nM and a TGI (CAKI-1 renal) of 11000 nM. The GI50 (CCRF-CEM leukemia) was 462 nM, the TGI (CCRF-CEM leukemia) was 3170 nM and the GI50 (COLO 205 colon) was 1160 nM. For the same compound, the TGI (COLO 205 colon) was 9740 nM, the GI50 (DU-145 prostate) was 1410 nM and the TGI (DU-145 prostate) was 11800 nM. For the same compound, the GI50 (EKVX NSCLC) was 525 nM, the TGI (EKVX NSCLC) was 3760 nM and the GI50 (HCC-2998 colon) was 1140 nM. The TGI (HCC-2998 colon) was 11600 nM, the GI50 (HCT-116 colon) was 701 nM and the TGI (HCT-116 colon) was 12500 nM. The GI50 (HCT-15 colon) was 190 nM, the TGI (HCT-15 colon) was 12800 nM and the GI50 (HL-60(TB) leukemia) was 340 nM. For the same compound, the TGI (HL-60(TB) leukemia) was 1640 nM, the GI50 (HOP-62 NSCLC) was 1140 nM and the TGI (HOP-62 NSCLC) was 7910 nM. The GI50 (HOP-92 NSCLC) was 1190 nM, the TGI (HOP-92 NSCLC) was 5370 nM and the GI50 (HS 578T breast) was 2620 nM. It also gave a TGI (HS 578T breast) of 18000 nM, a GI50 (HT29 colon) of 474 nM and a TGI (HT29 colon) of 13300 nM. The GI50 (IGROV1 ovarian) was 894 nM, the TGI (IGROV1 ovarian) was 5060 nM and the GI50 (K-562 leukemia) was 1220 nM. It also gave a TGI (K-562 leukemia) of 4580 nM, a GI50 (KM12 colon) of 1170 nM and a TGI (KM12 colon) of 12400 nM. For the same compound, the GI50 (LOX IMVI melanoma) was 682 nM, the TGI (LOX IMVI melanoma) was 2880 nM and the GI50 (M14 melanoma) was 1490 nM. For the same compound, the TGI (M14 melanoma) was 5540 nM, the GI50 (MALME-3M melanoma) was 2310 nM and the TGI (MALME-3M melanoma) was 8940 nM. The GI50 (MCF7 breast) was 1580 nM, the TGI (MCF7 breast) was 10300 nM and the GI50 (MDA-MB-231 breast) was 1260 nM. It also gave a TGI (MDA-MB-231 breast) of 10400 nM, a GI50 (MDA-MB-435) of 2740 nM and a TGI (MDA-MB-435) of 13900 nM. The GI50 (MDA-MB-468 breast) was 1200 nM, the TGI (MDA-MB-468 breast) was 3100 nM and the GI50 (MOLT-4 leukemia) was 388 nM. The TGI (MOLT-4 leukemia) was 2320 nM, the GI50 (NCI-H226 lung) was 1640 nM and the TGI (NCI-H226 lung) was 6800 nM. It also gave a GI50 (NCI-H23 lung) of 1390 nM, a TGI (NCI-H23 lung) of 3430 nM and a GI50 (NCI-H460 lung) of 392 nM. It also gave a TGI (NCI-H460 lung) of 3150 nM, a GI50 (NCI-H522 lung) of 1360 nM and a TGI (NCI-H522 lung) of 5100 nM. For the same compound, the GI50 (NCI/ADR-RES ovarian) was 514 nM, the TGI (NCI/ADR-RES ovarian) was 2290 nM and the GI50 (OVCAR-3 ovarian) was 2040 nM. It also gave a TGI (OVCAR-3 ovarian) of 16000 nM, a GI50 (OVCAR-4 ovarian) of 842 nM and a TGI (OVCAR-4 ovarian) of 4550 nM. The GI50 (OVCAR-5 ovarian) was 1350 nM, the TGI (OVCAR-5 ovarian) was 7230 nM and the GI50 (OVCAR-8 ovarian) was 944 nM. The TGI (OVCAR-8 ovarian) was 5270 nM, the GI50 (PC-3 prostate) was 1220 nM and the TGI (PC-3 prostate) was 6720 nM. It also gave a GI50 (RPMI-8226 leukemia) of 953 nM, a TGI (RPMI-8226 leukemia) of 12100 nM and a GI50 (RXF 393 renal) of 1690 nM. The TGI (RXF 393 renal) was 5620 nM, the GI50 (SF-268 CNS) was 1330 nM and the TGI (SF-268 CNS) was 11800 nM. For the same compound, the GI50 (SF-295 CNS) was 599 nM, the TGI (SF-295 CNS) was 6270 nM and the GI50 (SF-539 CNS) was 1140 nM. The TGI (SF-539 CNS) was 6940 nM, the GI50 (SK-MEL-2 melanoma) was 2130 nM and the TGI (SK-MEL-2 melanoma) was 12400 nM. It also gave a GI50 (SK-MEL-28 melanoma) of 2700 nM, a TGI (SK-MEL-28 melanoma) of 13300 nM and a GI50 (SK-MEL-5 melanoma) of 1810 nM. The TGI (SK-MEL-5 melanoma) was 8100 nM, the GI50 (SK-OV-3 ovarian) was 1170 nM and the TGI (SK-OV-3 ovarian) was 10900 nM. For the same compound, the GI50 (SN12C renal) was 1290 nM, the TGI (SN12C renal) was 8500 nM and the GI50 (SNB-19 CNS) was 1540 nM. The TGI (SNB-19 CNS) was 12000 nM, the GI50 (SR leukemia) was 288 nM and the TGI (SR leukemia) was 2210 nM. It also gave a GI50 (SW-620 colon) of 1070 nM, a TGI (SW-620 colon) of 10700 nM and a GI50 (T-47D breast) of 2070 nM. It also gave a TGI (T-47D breast) of 10200 nM, a GI50 (TK-10 renal) of 969 nM and a TGI (TK-10 renal) of 10200 nM. The GI50 (U251 CNS) was 967 nM, the TGI (U251 CNS) was 11700 nM and the GI50 (UACC-257 melanoma) was 2730 nM. The TGI (UACC-257 melanoma) was 9770 nM, the GI50 (UACC-62 melanoma) was 1280 nM and the TGI (UACC-62 melanoma) was 3240 nM. For the same compound, the GI50 (UO-31 renal) was 330 nM and the TGI (UO-31 renal) was 4910 nM.
